Experimental data taken from the NIST ThermoML archive (doi:10.1021/je800460a).

Experiment: wn = mass fraction of the nth substance listed
Conditions: 101 kPa, Liquid

NC(CO)(CO)CO [2-amino-2-(hydroxymethyl)-1,3-propanediol] + O
Conditions | mass density, w1 = 0.0217 [kg/m3] | mass density, w1 = 0.051 [kg/m3] | mass density, w1 = 0.103 [kg/m3] | mass density, w1 = 0.158 [kg/m3] | mass density, w1 = 0.217 [kg/m3] | viscosity, w1 = 0.0217 [mPa·s] | viscosity, w1 = 0.051 [mPa·s] | viscosity, w1 = 0.103 [mPa·s] | viscosity, w1 = 0.158 [mPa·s] | viscosity, w1 = 0.217 [mPa·s]
298 K | 1001.3 | 1009 | 1021.6 | 1033.6 | 1046.5 | 0.913 | 0.995 | 1.148 | 1.353 | 1.605
303 K | 999.6 | 1007.4 | 1019.2 | 1031.8 | 1044.2 | 0.874 | 0.94 | 1.059 | 1.223 | 1.449
313 K | 994.9 | 1002.8 | 1014.6 | 1026.8 | 1038.9 | 0.733 | 0.799 | 0.884 | 1.008 | 1.172
323 K | 988.1 | 996 | 1008.2 | 1019.9 | 1032.7 | 0.6 | 0.65 | 0.711 | 0.808 | 0.93
